This note sets out measurements from publication PMC11324297, “CDKL3 is a targetable regulator of cell cycle progression in cancers” (The Journal of Clinical Investigation, 2024).

For assay [1], the system named is MDA-MB-231. The experiment in a line: cells. Also on record: tumour cell growth suppression, dose response, 72 h. The settings on record: Homo sapiens, MDA-MB-231, 72 h. The procedure:
(§1) On the basis of a previous publication, a potential CDKL3 inhibitor candidate caught our attention. […] Thus, we intended to generate an efficient CDKL3 inhibitor based on this chemical backbone for cell cycle arrest. As the first step, the original compound (ASC67) was synthesized, and the performance was evaluated ([50]). The addition of ASC67 could gradient-dependently diminish the phosphorylation of Rb by CDKL3 while not influencing CDK4 or CDK2 in vitro (Figure 8B). The effectiveness of this chemical was then evaluated using a variety of cancer cell lines, including estrogen-responsive (ER^+) breast cancer, for which palbociclib is administrated clinically ([51]). […] As a direct comparison, the clinically approved CDK4/6 inhibitor had IC50 values ranging from 1 to 5 μM in different cell lines (Figure 8, C–F, and Supplemental Figure 6, A–F) ([47], [52]–[55]). This information made it evident that ASC67 holds considerable promise in cancer treatment and can be used as a backbone compound for further optimization. Chemical treatments Cdk1/2 Inhibitor III was dissolved in DMSO with a concentration of 25mM as stock solution. Cells were treated at a final concentration of 1.2μM. 5μM was used for in vitro kinase assay. Palbociclib was dissolved in DMSO with a concentration of 100mM as stock solution. Cells were treated with Palbociclib at a final concentration of 0.8μM. 5μM was used for in vitro kinase assay. Thymidine was dissolved in ddH2O with a concentration of 200mM. Cells were treated with Thymidine at a final concentration of 2mM. ASC67 was dissolved in DMSO with a concentration of 300mM as stock solution. For IC50 assay, cells were treated at a concentration range from 0 to 300μM. For in vitro kinase assay, the concentration ranging from 0 to 0.5μM was used. The inhibitor C3I-22 (HZ1) was dissolved in DMSO with a concentration of 300mM as stock solution. For IC50 assay, cells were treated with a concentration range from 0 to 300μM. For in vitro kinase assay, the concentration ranging from 0 to 0.1μM was used. Organoids derived from colon cancer patients were treated with a concentration range from 0 to 5μM. Balb/cA-nude and C57BL/6J-Apcmin/+ mice were treated with a concentration of 1mg/kg (suspended in PBS) through oral gavage. Other C3I inhibitors were dissolved in DMSO with a concentration of 200mM as stock solution. In vitro protein purification GST-tagged proteins were transformed into E. coli BL21 competent cells, and then protein expression was induced by adding IPTG (Beyotime Biotechnology) at 18°C for 6 to 10 hours. The bacterial culture was centrifuged (600xg, 10 min, 4°C), and the pellets were resuspended in 20mL lysis buffer (50mM Tris-HCl, 300mM NaCl, and 10% (v/v) glycerol, 1mM [compound left out], pH 7.9) and sonicated with 50% power on a SCIENTZ JY92-IIN sonicator for 20 minutes (5 seconds per time, with an interval of 5 seconds).

The subject of assay [2] is U2OS. In words: cells. Also on record: tumour cell growth suppression, dose response, 72 h. The settings on record: Homo sapiens, 72 h. The procedure: as §1
Assay [3] deals with HeLa. In words: cells. The settings on record: Homo sapiens, 72 h. The arrangement: tumour cell growth suppression, dose response, 72 h. As to the method: as §1
Assay [4] concerns MDA-MB-231. The experiment in a line: cells. The arrangement: tumour cell growth suppression, dose response, 24 h. The settings on record: Homo sapiens, MDA-MB-231, 24 h. The procedure:
as §1

In assay [5] the test system is U2OS. In words: cells. Also on record: tumour cell growth suppression, dose response, 24 h. The note with it: Homo sapiens, 24 h. As to the method: as §1
The test system of assay [6] is HeLa. In words: cells. The arrangement: tumour cell growth suppression, dose response, 24 h. The settings on record: Homo sapiens, 24 h. As to the method: as §1
Another assay concerns the target UBE3A (UniProt Q05086). The experiment in a line: co-immunoprecipitation. The note with it: reference: CDK4 wild type; sites T172.
For the next assay, the target named is Trim28 (UniProt Q13263). In words: co-immunoprecipitation. The note with it: reference: CDK4 wild type; sites T172.
Another assay concerns the target Stub1 (UniProt Q9UNE7). In words: co-immunoprecipitation. The note with it: reference: CDK4 wild type; sites T172.
Assay [7] relates to DLD-1. In words: cells. The arrangement: tumour cell growth suppression, dose response, 72 h. The note with it: Homo sapiens, 72 h, parental cells. The procedure:
as §1

Assay [8] relates to DLD-1. In words: cells. The arrangement: tumour cell growth suppression, dose response, 24 h. The settings on record: Homo sapiens, 24 h, parental cells. As to the method: as §1
For assay [9], the system named is MCF7. In words: cells. The settings on record: Homo sapiens, 72 h, parental cells. The arrangement: tumour cell growth suppression, dose response, 72 h. The procedure: as §1
Assay [10] deals with T47D. The experiment in a line: cells. The note with it: Homo sapiens, 72 h, parental cells. Also on record: tumour cell growth suppression, dose response, 72 h. The procedure:
as §1

In assay [11] the test system is MCF7. The experiment in a line: cells. Also on record: tumour cell growth suppression, dose response, 24 h. The settings on record: Homo sapiens, 24 h, parental cells. As to the method:
as §1

For assay [12], the system named is T47D. The experiment in a line: cells. Also on record: tumour cell growth suppression, dose response, 24 h. The note with it: Homo sapiens, 24 h, parental cells. As to the method: as §1

As a reminder, the IC50 is the concentration that inhibits the measured activity by half. On to `N#CCc1ccc(Nc2nccc(Nc3cc(C4CCCC4)n[nH]3)n2)cc1` [ASC67], for which the IC50 was determined as 381 nM in the assay with MDA-MB-231 [1]; 998 nM in the assay with U2OS [2]; 1550 nM with HeLa [3]; 1830 nM in the assay on MDA-MB-231 [4]; 1810 nM in the assay with U2OS [5]; 954 nM in the assay with HeLa [6].

The molecule `O=C(O)c1ccc(Nc2nccc(Nc3cc(C4CCCC4)n[nH]3)n2)cc1` [C3I-22-1, 4-((4-((3-cyclopentyl-1H-pyrazol-5-yl)amino)pyrimidin-2-yl)amino)benzoic acid] gave an IC50 in the assay on U2OS [2] of 38800 nM.

As for CDK4 (from UniProt P11802) CDK4 T172A, the “binding against the reference” value with UBE3A, in the assay with Trim28 and in the assay with Stub1 was “stronger” throughout.

As to `CC(=O)c1ccc(Nc2nccc(Nc3cc(C4CCCC4)n[nH]3)n2)cc1` [C3I-22, HZ1], the IC50 is 147 nM in the assay on DLD-1 [7]; 348 nM in the assay with U2OS [2]; 415 nM in the assay with U2OS [2] (parental cells); 600 nM with DLD-1 [8]; 1320 nM with U2OS [5] (parental cells).

Consider `CC(=O)c1c(C)c2cnc(Nc3ccc(N4CCNCC4)cn3)nc2n(C2CCCC2)c1=O` [palbociclib], for which the IC50 in the assay on MCF7 [9] turned out to be 2570 nM; with T47D [10], 1860 nM; in the assay on MCF7 [11], 2880 nM; in the assay on MDA-MB-231 [4], 5200 nM; in the assay on U2OS [5] it was 3520 nM; with HeLa [6], 4240 nM. The IC50 in the assay with T47D [12] was found to be 2150 nM.
